Source: patent publication US9409952B2, “Peptide-compound cyclization method” (Chugai Seiyaku Kabushiki Kaisha, priority 2011, dated 2016)
Where two headings read alike, the source gives them in different places. Starred links: 1 amine or outer side, 2 acyl side, 3 side chain; linkers in the order of their positions; H or OH if unused. Positions of bridges follow the written chain, without caps; N, C: chain ends. Non-standard residues stand in square brackets, D forms with d. Residues, ends and D or L forms follow the SMILES beside them. *: point of attachment. NMeF = CN[C@@H](Cc1ccccc1)C(=O)O; NMeI = CC[C@H](C)[C@H](NC)C(=O)O; NMeβAla = CN(CCC(=O)[*:2])[*:1]; NMeL = CN[C@@H](CC(C)C)C(=O)O; NMeA = CN[C@@H](C)C(=O)O; Piperidide = C1CCN(*)CC1; dNMeA = CN[C@H](C)C(=O)O; NPrGly = CCCNCC(=O)O; Sar = CNCC(=O)O; tBu = CC(C)(C)*

Assays:
[1] = Metabolic stability in human hepatic microsome; assay type: in vitro ADME; conditions: microsomes
[2] = Mouse PK test of peptides (intravenous and oral administration); conditions: male, C57BL/6J, in vivo, 20 mg/kg
[3] = PAMPA (parallel artificial membrane permeability assay); assay type: in vitro ADME; conditions: PAMPA
Summary of the method: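 Artificial membrane was 10% (w/v) egg lecithin plus 0.5% (w/v) cholesterol in dodecane on a PVDF filter. A 10 mM DMSO stock was added at 0.5% (v/v) to donor buffer (50 mM MOPSO, pH 6.5, 5.0% glycocholic acid). After 18 h at 37 °C, LC/MS or LC/UV gave donor and acceptor levels for Pe.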

[4] = pH 7.4, human hepatic microsome, NADPH(+), read-out: CL NADPH(+)
[5] = membrane permeation rate (Pe), 50 mM MOPSO buffer pH 6.5 with 5.0% glycocholic acid, 37° C., 18 hours, read-out: iPAMPA Pe

| SMILES | microsomal CLint at 1 uM [1, 4] [µL/min/mg] | AUC ([2]; iv) [ng·h/mL] | C0 ([2]; iv) [ng/mL] | Vd ([2]; iv) [L/kg] | clearance ([2]; iv) [mL/min/kg] | half-life ([2]; iv) [h] | AUC ([2]; po) [ng·h/mL] | CL/F ([2]; po) [mL/min/kg] | Cmax ([2]; po) [ng/mL] | Tmax ([2]; po) [h] | bioavailability ([2]; po) [%] | half-life ([2]; po) [h] | Papp at 18 hours, 50 µM [3, 5] [×10⁻⁶ cm/s] | microsomal CLint at 1 uM ([1]; human, pH 7.4, CL NADPH(+)) [µL/min/mg] | Papp at 18 hours, 50 µM ([3]; pH 6.5) [×10⁻⁶ cm/s] |
| --- | --- | --- | --- | --- | --- | --- | --- | --- | --- | --- | --- | --- | --- | --- | --- |
| CCCN1CC(=O)N(C)[C@@H](CC(C)C)C(=O)N[C@@H](COC(C)(C)C)C(=O)N(C)[C@@H](CC(C)C)C(=O)N[C@H](C(=O)N2CCCCC2)CC(=O)N[C@H](C)C(=O)N(C)[C@@H](C)C(=O)N(C)[C@@H](Cc2ccccc2)C(=O)N(C)[C@@H](CC(C)C)C(=O)N[C@@H]([C@@H](C)O)C1=O [DP-547] ([dA][NMeA][NMeF][NMeL]T[NPrGly][NMeL]S(tBu)[NMeL]D-Piperidide; lactam N-10) | 33 | 37200 | 44500 | 0.541 | 8.98 | 1.1 | 4510 | 74.6 | 1470 | 1 | 12.1 | 1.84 | 34 | – | – |
| CC[C@H](C)[C@@H]1NC(=O)CCN(C)C(=O)C[C@@H](C(=O)N2CCCCC2)NC(=O)[C@H](CC(C)C)N(C)C(=O)[C@H](Cc2ccccc2)NC(=O)[C@H](CC(C)C)N(C)C(=O)[C@H](CC(C)C)N(C)C(=O)[C@H](C)N(C)C(=O)[C@H](CC(C)C)N(C)C(=O)[C@H]([C@@H](C)O)NC(=O)[C@H](Cc2ccccc2)N(C)C(=O)[C@H](C)N(C)C(=O)[C@H](CC(C)C)N(C)C1=O [DP-958] ([NMeβAla]I[NMeL][NMeA][NMeF]T[NMeL][NMeA][NMeL][NMeL]F[NMeL]D-Piperidide; lactam N-13) | 31 | – | – | – | – | – | – | – | – | – | – | – | 0.54 | – | – |
| CC[C@H](C)[C@H](NC(=O)[C@H](Cc1ccccc1)N(C)C(=O)[C@H](Cc1ccccc1)N(C)C(=O)[C@@H]1CC(=O)N(C)CCC(=O)N[C@@H]([C@@H](C)CC)C(=O)N(C)[C@@H](Cc2ccccc2)C(=O)N(C)[C@@H](CC(C)C)C(=O)N[C@@H]([C@@H](C)O)C(=O)N(C)CC(=O)N(C)[C@@H](CC(C)C)C(=O)N[C@@H](C(C)C)C(=O)N(C)[C@@H](CC(C)C)C(=O)N1)C(=O)N1CCCCC1 [DP-961] ([NMeβAla]I[NMeF][NMeL]T[Sar][NMeL]V[NMeL]D[NMeF][NMeF]I-Piperidide; lactam N-10) | 33 | – | – | – | – | – | – | – | – | – | – | – | 0.57 | – | – |
| CC[C@H](C)[C@@H]1NC(=O)[C@H](C)N(C)C(=O)[C@H](CC(C)C)N(C)C(=O)[C@H](Cc2ccccc2)NC(=O)[C@H](CC(C)C)N(C)C(=O)[C@H](CC(C)C)N(C)C(=O)[C@H](C)N(C)C(=O)[C@H](Cc2ccccc2)N(C)C(=O)[C@@H](C)N(C)C(=O)C[C@@H](C(=O)N[C@H](C(=O)N2CCCCC2)[C@@H](C)CC)NC(=O)[C@H](CC(C)C)N(C)C(=O)[C@H]([C@@H](C)O)NC(=O)[C@H](COC(C)(C)C)NC1=O [DP-963] ([dNMeA][NMeF][NMeA][NMeL][NMeL]F[NMeL][NMeA]IS(tBu)T[NMeL]DI-Piperidide; lactam N-13) | 18 | – | – | – | – | – | – | – | – | – | – | – | 0.1 | – | – |
| CC[C@H](C)[C@@H]1NC(=O)[C@H](Cc2cccc(Cl)c2)N(C)C(=O)[C@H](CC(C)C)N(C)C(=O)C[C@@H](C(=O)N2CCCCC2)NC(=O)[C@H](CC(C)C)N(C)C(=O)[C@H](CC(C)C)N(C)C(=O)[C@H](CC(C)C)NC(=O)[C@H](C)N(C)C(=O)[C@@H](NC(=O)[C@H](CC(C)C)N(C)C(=O)[C@@H]2CCCN2C(=O)CO)CCCCNC1=O [DP-964, ^HOGly-Pro-MeLeu-*Lys-MeAla-Leu-MeLeu-MeLeu-Asp-piperidine-MeLeu-MePhe(3-Cl)-Ile* (cyclized at two * sites)] | – | – | – | – | – | – | – | – | – | – | – | – | – | 38 | 8.9 |
| CC[C@H](C)[C@H](NC(=O)[C@@H]1CCCN1C(=O)[C@@H]1CC(=O)N[C@@H](C)C(=O)N[C@@H](CC(C)C)C(=O)N(C)[C@@H]([C@@H](C)CC)C(=O)N[C@@H](C(C)C)C(=O)N(C)[C@@H](Cc2ccccc2)C(=O)N[C@@H](CC(C)C)C(=O)N(C)[C@@H](Cc2ccccc2)C(=O)N1)C(=O)N1CCCCC1 [DP-965] (AL[NMeI]V[NMeF]L[NMeF]DPI-Piperidide; lactam N-8) | 56 | 193000 | 171000 | 0.403 | 1.73 | 2.99 | 13700 | 28.9 | 1920 | 2.67 | 7.12 | 2.99 | 16 | – | – |
